The values below come from ChEMBL document CHEMBL1147505, “Efficient and chemoselective N-acylation of 10-amino-7-ethyl camptothecin with poly(ethylene glycol)” (2004).

Residues, ends and D or L forms follow the SMILES beside them. *: point of attachment. X2 = CCc1c2c(nc3ccc(N*)cc13)-c1cc3c(c(=O)n1C2)COC(=O)[C@]3(O)CC; X1 = COCCOC(=O)*

The test system of assay [1] is Mus musculus. The assay is described as follows: Survival time of CDF1 mice inoculated with leukemia P388 cells determined after 40 days of intravenous administration of compound at 20 mg/kg on days 1, 5 and 9. Format: functional.
Assay [2] is filed under the species Mus musculus. The assay is described as follows: Survival rate was determined as the ratio of mean survival days of treated group of mice to that of control group. Format: functional.

As usually defined, the T/C is the ratio of treated to control. Regarding `CCc1c2c(nc3ccc(NC(=O)CNC(=O)[C@H](Cc4ccccc4)NC(=O)[C@H](CC(C)C)NC(=O)CNC(=O)OCCOC)cc13)-c1cc3c(c(=O)n1C2)COC(=O)[C@]3(O)CC` (X1-GLFG-X2), the Survival time with Mus musculus [1] is 13 days. Further, the T/C in the assay filed under Mus musculus [2] is 170%. For `COc1cccc2c1C(=O)c1c(O)c3c(c(O)c1C2=O)C[C@@](O)(C(=O)CO)C[C@@H]3O[C@H]1C[C@H](N)[C@H](O)[C@H](C)O1` [DOXORUBICIN], the Survival time with Mus musculus [1] was >14 days. Also, the T/C in the assay listed under Mus musculus [2] is reported as >183%. For `CCc1c2c(nc3ccc(OC(=O)N4CCC(N5CCCCC5)CC4)cc13)-c1cc3c(c(=O)n1C2)COC(=O)[C@]3(O)CC` [IRINOTECAN], in the assay listed under Mus musculus [2], the T/C is recorded as 172%.
